# Assay results as given in patent US20220347306A1, “SELECTIVE DELIVERY OF THERAPEUTIC AND IMAGING AGENTS” (priority 2018, published 2022).
# Experiments:
# [1] = Body weight (tolerability and toxicity) in human HT1080 fibrosarcoma xenograft model; settings: 1 mg/kg of the cytotoxic agent component, IV on days 0 and 3
# Protocol: (§1) Female athymic nude mice (8-10 weeks old) purchased from Charles River (Wilmington, 01887, MA) were used after 4-7 day of acclimatization period. […] Human fibrosarcoma tumor cells from ATCC (CCL-121™) were grown using standard cell culture techniques. Tumor cells (1×10^8 tumor cells/mL) were suspended in DPBS/Matrigel™ (1:1 vol) and implanted subcutaneously (50 μL tumor cell suspension/mouse) into the upper mammary fat pad or right flank of mice with individual identification number (ear tag). Four to seven days later when the average tumor volume was about 50-100 mm^3, mice were randomized into different experimental groups based on identical averaged (Mean±SEM) tumor volume and dosed with (i) vehicle and (ii) different doses of test compounds. For each involved tumor-bearing mouse, the tumor volume (mm^3) was measured using a caliper and calculated as follows: tumor volume=width^2×length/2. Test compounds were administered intravenously (tail vein) twice (two administrations 3 days apart) in conscious restrained tumor-bearing mice throughout the study. Individual tumor volume, body weight as well as clinical signs were recorded during the study. Each study was terminated on day 12 post-dosing initiation. […] For each experimental group and study day, the tumor volumes from all involved mice were averaged and expressed as Mean±SEM. […]
# [2] = test system: HT1080 human fibrosarcoma subcutaneous tumor xenograft; test: Human fibrosarcoma tumor xenograft therapeutic model, tumor growth; type: in vivo, athymic nude mice; settings: dosed at 0.6 to 3.0 mg/kg of cytotoxic payload component, intravenously twice 3 days apart, evaluated day 9
# Protocol: as §1
# [3] = test system: HT1080 fibrosarcoma cells; test: Cancer cell viability assay using human HT1080 fibrosarcoma cells; type: cell-based; settings: four days incubation, reduction of viable cells, SDM as such
# Protocol: Method: Plate cells one day prior to start of assay in 96 well black with clear bottom plates (Corning #3603), 2×10^4 cells per well in 100 μL of standard growth media (according to ATCC). Grow cells to 90% confluency.
# Before start of assay rinse cells IX with DPBS. Add compounds in a 3-fold serial dilution in triplicate (range e.g. 8.1 μM-3.7 nM), 100 μL per well in standard growth media.
# Incubate four days then assay cell viability as described below. Remove media and rinse IX with DPBS, then add 100 μL per well 10% Prestoblue Cell viability reagent (Thermo Fisher Scientific #A13261) in complete media. Return to incubator for two hours then read plate on SpectraMax M2e, bottom read excitation 555 emission 585 cut-off 570 which measures number of live cells. […] In most cases, SDMs were also tested in activated form by pre-treatment with protease that activates the compound. […] In Table 9 this is represented as ACT SDM-200.
SMILES,Tolerability (FIG. 3B) [1],"Weight loss (body weight normalized to day 1, FIG. 3B) [1] [%]",Efficacy (percent tumor growth inhibition versus vehicle) [2],EC50 [3] [nM]
[2H]C(=O)OCc1ccc(NC(=O)[C@H](CCCNC(N)=O)NC(=O)[C@@H](NC(=O)CCCCCN2C(=O)C=CC2=O)C(C)C)cc1 [SDM-155],not tolerated,> 20,,
[2H]CC(NC(=O)C(CCCNC(=N)N)NC(=O)[C@H](CCCNC(=N)N)NC(=O)[C@@H](CCCNC(=N)N)NC(=O)[C@H](CCCNC(=N)N)NC(=O)[C@@H](CCCNC(=N)N)NC(=O)[C@H](CCCNC(=N)N)NC(=O)[C@@H](CCCNC(=N)N)NC(=O)[C@H](CCCNC(=N)N)NC(=O)C(CO)NC(=O)[C@H](CCCNC(=N)N)NC(=O)[C@H](Cc1c[nH]c2ccccc12)NC(=O)C(CC(C)C)NC(=O)C(C)NC(=O)[C@H](CC(C)C)NC(=O)[C@@H]1CCCN1C(=O)[C@H](CCCNC(=N)N)NC(=O)COCCNC(=O)C(Cc1ccc(C(C)=O)cc1)NC(=O)[C@@H](CCC(=O)O)NC(=O)[C@@H](CCC(=O)O)NC(=O)[C@@H](CCC(=O)O)NC(=O)[C@@H](CCC(=O)O)NC(=O)[C@@H](CCC(=O)O)NC(=O)CCN1C(=O)C=CC1=O)C(N)=O (some centres unmarked) [SDM-173],,,High (High: ≥80% inhibition),
CC[C@H](C)C([C@@H](CC(=O)N1CCCC1[C@H](OC)[C@@H](C)C(=O)N[C@@H](Cc1ccccc1)C(=O)O)OC)N(C)C(=O)[C@@H](NC(=O)[C@H](C(C)C)N(C)C(=O)CNC(=O)[C@H](CCCNC(N)=O)NC(=O)[C@@H](NC(=O)[C@H](Cc1ccc(/C(C)=N\OCCCCCC(=O)N[C@@H](CC(=O)O)C(=O)NC(CC2CCCCC2)C(=O)NC(Cc2ccccc2)C(=O)N[C@H](CO)C(=O)N[C@H](CCCNC(N)N)C(=O)N[C@@H](Cc2ccc(O)cc2)C(=O)N[C@@H](CC(C)C)C(=O)N[C@@H](Cc2c[nH]c3ccccc23)C(=O)N[C@@H](CO)C(N)=O)cc1)NC(=O)CCCCCN1C(=O)C=CC1=O)C(C)C)C(C)C (some centres unmarked) [SDM-185],,,Medium (Medium: ≥29% inhibition to < 80% inhibition),< 300
